Source: patent US20260317344A1, “EGFR INHIBITORS FOR TREATING DISEASE” (BLOSSOMHILL THERAPEUTICS, INC., priority 2023, published 2026)

Legend:
[1] = molecular target: T1, pEGFR, PC-9 cells (d746-750 EGFR) (Homo sapiens, UniProt P00533, DEL746-750); assay: Cellular EGFR phosphorylation assay (LANCE Ultra TR-FRET) in PC-9 cells; type: cell-based; conditions: 4 hours at 37° C., read-out: PC-9 pEGFR IC50
T1 construct: pEGFR (Tyr1068) TR-FRET
Procedure: (§1) Cellular EGFR Phosphorylation Assays
(§2) EGFR phosphorylation assays were conducted in NSCLC cells with EGFR activation mutations. PC-9 cells (purchased from Aldrich-Sigma) carry a Glu746-Ala750 deletion (d746-750) mutation in exon 19 of the EGFR gene and NCI-H1975 cells (purchased from ATCC) carry both L858R activation mutation and T790M gatekeeper mutation in the EGFR gene. A431 cells (purchased from ATCC) with amplification of wildtype EGFR, derived from epidermoid carcinoma, were used to measure the activity against wildtype EGFR. All cells were seeded in 96-well plates. For PC-9 and NCI-H1975 cells, 50 thousand cells were seeded per well. For A431 cells, 30 thousand cells were seeded per well. The next day, cells were exposed to compound for 4 hours at 37° C. and 5% CO2. Compounds were diluted in DMSO and added to cells in a 9-dose, 3-fold dilution, titration curve using TECAN d300e liquid dispenser. For A431 cells, 40 ng/mL of EGF was added to the media for the final 10 minutes of incubation. EGFR phosphorylation was measured using phospho-EGFR (Try1068) LANCE Ultra TR-FRET Detection Kit (TRF4015M) from PerkinElmer according to manufacturer's instructions. In brief, cells were lysed with 40 μL of lysis buffer plus 1× Halt protease and phosphatase inhibitor cocktail (Thermo 78441) and by incubation at room temperature for 1 h on a microplate shaker (350 rpm). 15 μ L of cell lysate was transferred to 384-well white plate and 5 μL of Europium- and ULight-labeled antibodies diluted in 1× detection buffer was added to each well. After 4-6 hours of incubation at room temperature, plates were then read on a TECAN Sparks multimode microplate reader. Data was analyzed using GraphPad Prism 9 (GraphPad Software, San Diego, CA) to obtain IC50 values.

[2] = molecular target: T2, pEGFR, A431 cells (wildtype EGFR) (Homo sapiens, UniProt P00533); assay: Cellular EGFR phosphorylation assay (LANCE Ultra TR-FRET) in A431 cells; type: cell-based; conditions: 4 hours at 37° C., 40 ng/mL EGF for the final 10 minutes, read-out: A431 pEGFR IC50
T2 construct: pEGFR (Tyr1068) TR-FRET
Procedure: as §1, §2

EGFR (D746-750) = EGFR (D746-750) (Homo sapiens, UniProt P00533, DEL746-750); assay: HotSpot radiometric kinase assay, inhibition of EGFR 746-750 mutant; type: biochemical; conditions: 33P ATP, room temperature, 120 m
Procedure: (§3) Biochemical Assays for inhibition of wild-type and mutant EGFRs
(§4) Briefly, specific kinase/substrate pairs along with required cofactors were prepared in reaction buffer; 20 mM HEPES pH 7.5, 10 mM […], 1 mM EGTA, 0.02% Brij35, 0.02 mg/ml BSA, 0.1 mM Na3VO4, 2 mM DTT, 1% DMSO. Compounds were delivered into the reaction, followed ~20 minutes later by addition of a mixture of ATP (Sigma, St. Louis MO) and ^33P ATP (Perkin Elmer, Waltham MA) to a final concentration of […]. Reactions were carried out at room temperature for 120 m, followed by spotting of the reactions onto P81 ion exchange filter paper (Whatman Inc., Piscataway, NJ). Unbound phosphate was removed by extensive washing of filters in 0.75% phosphoric acid. […] IC50 values and curve fits were obtained using Prism (GraphPad Software).

EGFR (D770_N771insNPG) = EGFR (D770_N771insNPG) (Homo sapiens, UniProt P00533, INS770NPG); assay: HotSpot radiometric kinase assay, inhibition of EGFR (D770_N771insNPG) mutant; type: biochemical; conditions: 33P ATP, room temperature, 120 m
Procedure: as §3, §4

PC-9 cells = assay: 5-Day CellTiter Glo (CTG) cell proliferation assay, PC-9; type: cell-based; conditions: Homo sapiens; PC-9 cells (d746-750 EGFR), 5-day CTG proliferation, 120 hours; read-out: PC-9 IC50
Summary of the method: (§5)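 Luminescent ATP signal (CellTiter-Glo 2.0) after 120 hours of compound exposure gave IC50 values. PC-9 and HCC827 harbour EGFR d746-750; NCI-H1975 harbours L858R/T790M.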

HCC827 cells = assay: 5-Day CellTiter Glo (CTG) cell proliferation assay, HCC827; type: cell-based; conditions: Homo sapiens; HCC827 cells (d746-750 EGFR), 5-day CTG proliferation, 120 hours; read-out: HCC827 IC50
Summary of the method: as §5

NCI-H1975 cells = assay: 5-Day CellTiter Glo (CTG) cell proliferation assay, NCI-H1975; type: cell-based; conditions: Homo sapiens; NCI-H1975 cells (L858R/T790M EGFR), 5-day CTG proliferation, 120 hours; read-out: H1975 IC50
Summary of the method: as §5

EGFR (D746-750/C797S) = EGFR (D746-750/C797S) (Homo sapiens, UniProt P00533, C797S/DEL746-750); assay: HotSpot radiometric kinase assay, inhibition of EGFR 746-750/C797S mutant; type: biochemical; conditions: 33P ATP, room temperature, 120 m
Procedure: as §3, §4

EGFR (L858R/T790M/C797S) = EGFR (L858R/T790M/C797S) (Homo sapiens, UniProt P00533, C797S/L858R/T790M); assay: HotSpot radiometric kinase assay, inhibition of EGFR L858R/T790M/C797S mutant; type: biochemical; conditions: 33P ATP, room temperature, 120 m
Procedure: as §3, §4

[3] = molecular target: T3, pEGFR, NCI-H1975 cells (L858R/T790M EGFR) (Homo sapiens, UniProt P00533, L858R/T790M); assay: Cellular EGFR phosphorylation assay (LANCE Ultra TR-FRET) in NCI-H1975 cells; type: cell-based; conditions: 4 hours at 37° C., read-out: H1975 pEGFR IC50
T3 construct: pEGFR (Tyr1068) TR-FRET
Procedure: as §1, §2

[4] = tested on: BaF3 cells with engineered EGFR L858R/T790M/C797S; assay: 3-Day CellTiter Glo (CTG) cell proliferation assay, BaF3 EGFR L858R/T790M/C797S; type: cell-based; conditions: Mus musculus, 3-day CTG proliferation, 72 hours
Procedure: (§6) 3-DAY CellTiter Glo (CTG) Cell Proliferation Assays (BaF3 Cell Lines)
(§7) Cell proliferation assays were carried out in BaF3 cells engineered with EGFR mutations. BaF3 cells with engineered EGFR L858R/T790M/C797S, EGFR L858R/C797S, or EGFR d746-750/T790M transgene, one thousand cells/50 μL per well were seeded in white 384-well plate, followed by treatment with indicated compounds in a 9-dose dilution series using TECAN d300e liquid dispenser. Cells were incubated with compounds for 72 hours at 37° C. and 5% CO2. Cell proliferation was measured using CellTiter-Gbo 2.0 luciferase-based ATP detection assay (Promega, Madison, WI) at 18 μL per well following the manufacturer's protocol. Plates were then read on a TECAN Sparks multimode microplate reader. Data was analyzed using GraphPad Prism 9 (GraphiPad Software, San Diego, CA) to obtain IC50 values.

[5] = tested on: BaF3 cells with engineered EGFR L858R/C797S; assay: 3-Day CellTiter Glo (CTG) cell proliferation assay, BaF3 EGFR L858R/C797S; type: cell-based; conditions: Mus musculus, 3-day CTG proliferation, 72 hours
Procedure: as §6, §7

Sequence of EGFR (D770_N771insNPG) (P00533 with tags, fused parts or gaps INS770NPG limits assumed): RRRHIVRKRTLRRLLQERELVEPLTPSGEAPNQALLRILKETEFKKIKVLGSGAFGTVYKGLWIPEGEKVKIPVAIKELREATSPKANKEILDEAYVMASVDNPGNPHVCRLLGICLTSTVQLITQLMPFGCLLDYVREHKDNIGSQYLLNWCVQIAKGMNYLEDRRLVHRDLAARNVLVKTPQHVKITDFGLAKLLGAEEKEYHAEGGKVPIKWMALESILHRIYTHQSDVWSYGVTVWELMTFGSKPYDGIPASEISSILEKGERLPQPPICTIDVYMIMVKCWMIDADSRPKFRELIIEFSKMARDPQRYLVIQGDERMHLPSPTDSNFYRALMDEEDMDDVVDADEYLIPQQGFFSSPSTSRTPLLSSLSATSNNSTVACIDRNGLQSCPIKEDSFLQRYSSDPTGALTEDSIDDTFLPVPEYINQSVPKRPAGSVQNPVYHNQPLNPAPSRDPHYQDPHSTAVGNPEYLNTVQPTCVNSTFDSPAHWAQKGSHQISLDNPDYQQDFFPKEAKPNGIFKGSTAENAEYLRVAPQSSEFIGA
Sequence of EGFR (L858R/T790M/C797S) (P00533 25-1210 T790M/C797S/L858R): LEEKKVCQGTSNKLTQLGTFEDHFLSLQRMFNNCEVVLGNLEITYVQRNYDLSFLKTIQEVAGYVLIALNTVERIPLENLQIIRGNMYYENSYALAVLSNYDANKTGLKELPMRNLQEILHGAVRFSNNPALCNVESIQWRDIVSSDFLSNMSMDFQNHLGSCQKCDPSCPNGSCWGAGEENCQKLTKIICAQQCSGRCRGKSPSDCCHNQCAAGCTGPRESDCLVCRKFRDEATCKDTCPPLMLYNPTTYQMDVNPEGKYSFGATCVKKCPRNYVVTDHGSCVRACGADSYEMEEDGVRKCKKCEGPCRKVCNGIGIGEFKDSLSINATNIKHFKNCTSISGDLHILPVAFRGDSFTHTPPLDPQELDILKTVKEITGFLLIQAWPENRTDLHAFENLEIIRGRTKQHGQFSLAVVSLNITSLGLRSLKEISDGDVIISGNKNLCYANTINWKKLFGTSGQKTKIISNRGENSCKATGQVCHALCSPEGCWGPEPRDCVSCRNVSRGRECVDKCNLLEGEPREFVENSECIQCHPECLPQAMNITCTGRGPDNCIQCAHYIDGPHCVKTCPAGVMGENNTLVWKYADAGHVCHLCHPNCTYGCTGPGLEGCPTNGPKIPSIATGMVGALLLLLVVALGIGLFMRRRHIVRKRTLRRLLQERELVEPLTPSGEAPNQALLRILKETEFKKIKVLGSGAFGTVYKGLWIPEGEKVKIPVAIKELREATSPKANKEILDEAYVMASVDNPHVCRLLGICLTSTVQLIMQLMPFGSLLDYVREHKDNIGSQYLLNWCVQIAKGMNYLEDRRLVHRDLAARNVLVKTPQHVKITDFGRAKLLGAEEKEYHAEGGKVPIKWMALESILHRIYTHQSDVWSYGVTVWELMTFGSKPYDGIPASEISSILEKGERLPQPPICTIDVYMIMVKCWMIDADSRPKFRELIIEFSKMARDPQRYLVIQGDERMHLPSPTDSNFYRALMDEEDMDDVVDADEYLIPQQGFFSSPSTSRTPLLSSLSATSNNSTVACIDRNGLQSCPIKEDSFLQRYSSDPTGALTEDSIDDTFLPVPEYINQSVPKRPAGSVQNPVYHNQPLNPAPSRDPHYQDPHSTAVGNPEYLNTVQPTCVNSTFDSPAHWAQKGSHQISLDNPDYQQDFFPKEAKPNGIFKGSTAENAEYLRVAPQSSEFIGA
Sequence of EGFR (D746-750/C797S) (P00533 with tags, fused parts or gaps DEL746-750/C797S): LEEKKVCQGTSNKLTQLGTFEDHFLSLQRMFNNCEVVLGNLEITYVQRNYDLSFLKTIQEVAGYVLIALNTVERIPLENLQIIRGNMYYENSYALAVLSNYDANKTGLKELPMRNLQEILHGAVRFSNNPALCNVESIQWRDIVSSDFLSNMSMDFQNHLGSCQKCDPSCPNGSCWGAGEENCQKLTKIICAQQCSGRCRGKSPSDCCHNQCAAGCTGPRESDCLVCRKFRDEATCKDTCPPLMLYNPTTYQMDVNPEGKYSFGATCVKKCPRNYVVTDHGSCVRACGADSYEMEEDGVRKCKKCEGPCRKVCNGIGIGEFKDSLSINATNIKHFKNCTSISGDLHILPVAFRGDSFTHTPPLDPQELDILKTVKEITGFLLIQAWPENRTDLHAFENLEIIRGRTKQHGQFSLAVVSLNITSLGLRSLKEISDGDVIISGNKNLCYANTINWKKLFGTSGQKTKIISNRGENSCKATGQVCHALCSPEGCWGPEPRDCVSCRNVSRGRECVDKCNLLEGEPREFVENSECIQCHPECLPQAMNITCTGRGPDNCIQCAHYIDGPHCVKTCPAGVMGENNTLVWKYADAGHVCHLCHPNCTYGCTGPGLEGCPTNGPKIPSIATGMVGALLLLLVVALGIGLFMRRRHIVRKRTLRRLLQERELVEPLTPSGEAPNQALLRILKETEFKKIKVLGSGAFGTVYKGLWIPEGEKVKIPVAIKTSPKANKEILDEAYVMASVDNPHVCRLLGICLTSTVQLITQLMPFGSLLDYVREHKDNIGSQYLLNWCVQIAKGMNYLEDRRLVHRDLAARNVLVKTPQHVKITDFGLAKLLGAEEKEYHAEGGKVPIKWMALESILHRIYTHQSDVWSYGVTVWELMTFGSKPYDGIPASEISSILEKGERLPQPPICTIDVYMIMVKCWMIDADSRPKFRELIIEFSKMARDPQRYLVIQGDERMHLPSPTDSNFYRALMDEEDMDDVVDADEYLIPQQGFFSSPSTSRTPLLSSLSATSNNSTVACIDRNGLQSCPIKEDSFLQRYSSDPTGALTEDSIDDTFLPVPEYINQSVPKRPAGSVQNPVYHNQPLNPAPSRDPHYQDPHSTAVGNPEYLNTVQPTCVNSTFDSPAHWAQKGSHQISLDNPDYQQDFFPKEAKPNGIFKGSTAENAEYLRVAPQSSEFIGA
Sequence of EGFR (D746-750) (P00533 with tags, fused parts or gaps DEL746-750): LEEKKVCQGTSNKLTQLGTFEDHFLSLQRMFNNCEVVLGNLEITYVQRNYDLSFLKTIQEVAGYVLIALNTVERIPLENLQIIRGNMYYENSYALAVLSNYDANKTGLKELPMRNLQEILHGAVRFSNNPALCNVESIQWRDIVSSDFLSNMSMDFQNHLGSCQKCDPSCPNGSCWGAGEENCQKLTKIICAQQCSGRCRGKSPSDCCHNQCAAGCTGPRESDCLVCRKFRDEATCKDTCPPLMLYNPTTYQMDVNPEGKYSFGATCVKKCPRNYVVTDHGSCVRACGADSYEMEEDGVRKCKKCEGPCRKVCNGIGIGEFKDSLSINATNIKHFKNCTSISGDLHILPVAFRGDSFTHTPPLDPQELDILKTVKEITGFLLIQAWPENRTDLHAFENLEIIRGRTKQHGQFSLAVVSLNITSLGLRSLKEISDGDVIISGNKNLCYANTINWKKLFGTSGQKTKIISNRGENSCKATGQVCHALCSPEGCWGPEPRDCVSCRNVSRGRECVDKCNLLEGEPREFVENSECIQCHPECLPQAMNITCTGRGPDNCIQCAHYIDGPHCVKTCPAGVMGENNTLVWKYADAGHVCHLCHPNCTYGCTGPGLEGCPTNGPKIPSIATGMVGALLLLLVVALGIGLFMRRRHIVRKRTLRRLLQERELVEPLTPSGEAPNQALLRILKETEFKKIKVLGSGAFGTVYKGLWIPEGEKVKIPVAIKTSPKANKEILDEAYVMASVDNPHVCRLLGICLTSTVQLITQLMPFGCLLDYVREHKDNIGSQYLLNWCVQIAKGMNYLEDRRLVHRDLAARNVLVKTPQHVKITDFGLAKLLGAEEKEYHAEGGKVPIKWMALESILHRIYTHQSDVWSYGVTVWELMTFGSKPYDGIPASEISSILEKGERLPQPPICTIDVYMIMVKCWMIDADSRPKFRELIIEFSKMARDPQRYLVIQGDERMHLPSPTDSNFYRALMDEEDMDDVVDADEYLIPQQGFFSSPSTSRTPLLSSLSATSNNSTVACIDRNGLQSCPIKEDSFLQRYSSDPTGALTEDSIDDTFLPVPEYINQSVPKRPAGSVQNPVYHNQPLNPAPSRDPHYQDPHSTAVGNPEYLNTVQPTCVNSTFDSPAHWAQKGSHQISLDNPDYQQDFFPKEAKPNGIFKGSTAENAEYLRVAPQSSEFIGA

Row | IC50 [1] | IC50 [2] | IC50 (EGFR (D746-750)) | IC50 (EGFR (D770_N771insNPG)) | IC50 (PC-9 cells) | IC50 (HCC827 cells) | IC50 (NCI-H1975 cells) | IC50 (EGFR (D746-750/C797S)) | IC50 (EGFR (L858R/T790M/C797S)) | IC50 [3] | IC50 [4] | IC50 [5] | Structure (SMILES)
1 | 1.13 nM | 13.2 nM | 0.42 nM | 0.42 nM | 1.08 nM | 0.44 nM | 16.9 nM | 1.58 nM | 0.74 nM | 1.54 nM | – | – | CCc1nn(CCO)c2c1/C=C/c1n[nH]c3cnc(cc13)-c1c(C)nn(C)c1O[C@@H](C)CN(CC)C2 [Ex. 62, 2-[(10S,17E)-12,16-diethyl-6,8,10-trimethyl-2,8,10,11,12,13-hexahydro-14H-5,3-(azenometheno)tripyrazolo[3,4-f:3′,4′-j:4″,3″-n][1,4]oxazacyclopentadecin-14-yl]ethan-1-ol]
2 | 2.39 nM | 29 nM | 0.54 nM | 0.78 nM | 5.05 nM | 1.77 nM | 57.5 nM | 1.72 nM | 0.86 nM | 2.49 nM | – | – | CCc1nn(CCO)c2c1/C=C/c1n[nH]c3cnc(cc13)-c1c(C)nn(C)c1O[C@@H](C)CN(C)C2 [Ex. 60]
3 | 1.68 nM | 21 nM | 0.43 nM | 0.7 nM | 3.55 nM | 0.66 nM | 74.7 nM | 1.05 nM | 0.91 nM | 2.05 nM | – | – | CCc1nn([C@@H](C)CO)c2c1/C=C/c1n[nH]c3cnc(cc13)-c1c(C)nn(C)c1O[C@@H](C)CN(C)C2 [Ex. 61, (2S)-2-[(10S,17E)-16-ethyl-6,8,10,12-tetramethyl-2,8,10,11,12,13-hexahydro-14H-5,3-(azenometheno)tripyrazolo[3,4-f:3′,4′-j:4″,3″-n][1,4]oxazacyclopentadecin-14-yl]propan-1-ol]

Second part, the compound before the results:

Row | Structure (SMILES) | IC50 [1] | IC50 [2] | IC50 (EGFR (D746-750)) | IC50 (EGFR (D770_N771insNPG)) | IC50 (PC-9 cells) | IC50 (HCC827 cells) | IC50 (NCI-H1975 cells) | IC50 (EGFR (D746-750/C797S)) | IC50 (EGFR (L858R/T790M/C797S)) | IC50 [3] | IC50 [4] | IC50 [5]
4 | CC(C)Oc1nn(CCO)c2c1/C=C/c1n[nH]c3cnc(cc13)-c1cnn(C)c1OC[C@H](C)N(C(C)C)C2 [Ex. 4, 2-[(11S,17E)-8,11-dimethyl-12-(propan-2-yl)-16-[(propan-2-yl)oxy]-2,8,10,11,12,13-hexahydro-14H-5,3-(azenometheno)tripyrazolo[3,4-f:3′,4′-j:4″,3″-n][1,4]oxazacyclopentadecin-14-yl]ethan-1-ol] | 789 nM | 442 nM | 0.59 nM | 3.07 nM | 115 nM | 6.03 nM | 74.9 nM | 1.44 nM | 1.36 nM | 17.7 nM | 2.81 nM | 2.6 nM
5 | CCN1Cc2c(c(OCC#N)nn2[C@@H](C)CO)/C=C/c2n[nH]c3cnc(cc23)-c2c(C)nn(C)c2O[C@@H](C)C1 [Ex. 67, {[(10S,17E)-12-ethyl-14-[(2S)-1-hydroxypropan-2-yl]-6,8,10-trimethyl-2,10,11,12,13,14-hexahydro-8H-5,3-(azenometheno)tripyrazolo[3,4-f:3′,4′-j:4″,3″-n][1,4]oxazacyclopentadecin-16-yl]oxy}acetonitrile] | 2.98 nM | 16 nM | 0.56 nM | 0.69 nM | 1.81 nM | 1.13 nM | 17.6 nM | 1.65 nM | 1.08 nM | 5.54 nM | – | –
6 | CCOc1nn([C@@H](C)CO)c2c1/C=C/c1n[nH]c3cnc(cc13)-c1c(C)nn(C)c1OC[C@H]1CCCN1C2 [Ex. 65, (2S)-2-[(8aR,19E)-1-ethoxy-11,13-dimethyl-7,8,8a,9,11,17-hexahydro-6H-14,16-(azenometheno)tripyrazolo[3,4-f:3′,4′-j:4″,3″-n]pyrrolo[2,1-c][1,4]oxazacyclopentadecin-3(4H)-yl]propan-1-ol] | 1.11 nM | 15.8 nM | 0.61 nM | 0.99 nM | 1.6 nM | 0.63 nM | 5.36 nM | 1.61 nM | 1.58 nM | 1.56 nM | – | –
7 | Cc1nn(C)c2c1-c1cc3c(n[nH]c3cn1)/C=C/c1c(OCC#N)nn(CCO)c1CN(C)[C@@H](C)CO2 [Ex. 31] | 65.1 nM | 119 nM | 0.27 nM | 2.23 nM | 226 nM | 11.6 nM | 358 nM | 0.78 nM | 0.29 nM | 41.6 nM | 25.9 nM | 3.72 nM
8 | CCOc1nn(CCO)c2c1/C=C/c1n[nH]c3cnc(cc13)-c1c(C)nn(C)c1OCCN(C)C2 [Ex. 68, 2-[(17E)-16-ethoxy-6,8,12-trimethyl-2,8,10,11,12,13-hexahydro-14H-5,3-(azenometheno)tripyrazolo[3,4-f:3′,4′-j:4″,3″-n][1,4]oxazacyclopentadecin-14-yl]ethan-1-ol] | 6.22 nM | 21 nM | 0.33 nM | 0.95 nM | 15.4 nM | 2.49 nM | 227 nM | 1.18 nM | 0.44 nM | 6.39 nM | – | –
9 | CCN1Cc2c(c(OCC#N)nn2[C@@H](C)CO)/C=C/c2n[nH]c3cnc(cc23)-c2c(C)nn(C)c2O[C@H](C)C1 [Ex. 58, {[(10R,17E)-12-ethyl-14-[(2S)-1-hydroxypropan-2-yl]-6,8,10-trimethyl-2,10,11,12,13,14-hexahydro-8H-5,3-(azenometheno)tripyrazolo[3,4-f:3′,4′-j:4″,3″-n][1,4]oxazacyclopentadecin-16-yl]oxy}acetonitrile] | 1.11 nM | 21.5 nM | 0.55 nM | 0.72 nM | 2.44 nM | 0.75 nM | 14.7 nM | 1.38 nM | 1.01 nM | 2.34 nM | – | –
